Laboratory results taken from patent US10493035B2, “Tablets comprising 2-hydroxy-6-((2-(1-isopropyl-1H-pyrazol-5-yl)pyridin-3-yl)methoxy)benzaldehyde” (Global Blood Therapeutics, Inc., priority 2016, dated 2019).
Each block holds one molecule with its values, some of them ahead of it.

Tests used:
[1] = Compression profile of neat Form II API (hydraulic press, 200 mg compacts); format: physicochemical; details: for Tablet Hardness / Tablet Thickness: neat API 200 mg
Method: The compressibility of crystalline Form II of Compound 1 (“API”) was determined by compressing neat unformulated API at 200 mg scale compressed in a hydraulic press using 5/16th inch diameter, standard concave round tooling. The resulting tablets were measured for thickness using a digital caliper gauge, and for tensile strength using a tablet hardness tester. […] Lots 1a and 2 were directly from the API manufacturing process, but from different API suppliers. Lot 1b was prepared by taking Lot 1a and subjecting it to hammer milling to cause reduction of particle size.

[2] = Physicochemical and biopharmaceutical properties of Compound 1 and its crystal forms
Method: Compound 1 is a BCS II compound, where its solubility is the primary biopharmaceutical factor limiting absorption. Compound 1 exists in one form as an ansolvate crystalline form characterized by at least two, three or four X-ray powder diffraction peaks (Cu Kα radiation) selected from 13.37°, 14.37°, 19.95° and 23.92° 2θ (each ±0.2° 2θ) (see, e.g., PCT application Publication No. WO 2015/120133 A1, incorporated herein by reference in its entirety and for all purposes). This form can hereinafter also be referred to as Form II. The physicochemical properties of Compound 1, including its Form II, are not as conducive (compared to other drug substances for formulation) to making a high dosage form of Compound 1. […] The bulk density of Form II of Compound 1 is considered low and its flowability considered poor. Upon milling, the flowability decreases. […] Form II of Compound 1 is also prone to sticking to steel surfaces, such as in processing equipment for tablet manufacture.
In addition, another ansolvate crystalline form of Compound 1, referred to as Form N, is known. Form N has an enantiotropic relationship with Form II, with a transition temperature approximately in the range 30-40° C. Thus, under temperatures (e.g. storage) below 40° C., e.g., at 25° C., Compound 1 is more thermodynamically stable as Form II and at temperatures above 40° C., e.g., at 50° C., Compound 1 is more thermodynamically stable as Form N. To design tablets containing Compound 1, the above physicochemical property limitations of Compound 1 and the high dose requirements need to be accommodated while ensuring that the tablets have dissolution properties that lead to a therapeutic effect.

[3] = compression force 2000 lbf, listed as 2
[4] = compression force 3000 lbf, listed as 2
[5] = compression force 4000 lbf, listed as 2
[6] = compression force 2000 lbf, listed as 1a
[7] = compression force 3000 lbf, listed as 1a
[8] = compression force 4000 lbf, listed as 1a
[9] = compression force 2000 lbf, listed as 1b
[10] = compression force 3000 lbf, listed as 1b
[11] = compression force 4000 lbf, listed as 1b

Structure (SMILES): CC(C)n1nccc1-c1ncccc1COc1cccc(O)c1C=O [Lot 2, 2-hydroxy-6-((2-(1-isopropyl-1H-pyrazol-5-yl)pyridin-3-yl)methoxy)benzaldehyde]
Tablet Hardness [1, 3]: 9.0 kp
Tablet Thickness [1, 3]: 4.50 mm
Tablet Hardness [1, 4]: 3.7 kp
Tablet Thickness [1, 4]: 4.27 mm
Tablet Hardness [1, 5]: 3.4 kp
Tablet Thickness [1, 5]: 4.31 mm

Structure (SMILES): CC(C)n1nccc1-c1ncccc1COc1cccc(O)c1C=O [Form N, 2-hydroxy-6-((2-(1-isopropyl-1H-pyrazol-5-yl)pyridin-3-yl)methoxy)benzaldehyde]
Transition temperature of the enantiotropic relationship with Form II [2]: 30-40 °C

Structure (SMILES): CC(C)n1nccc1-c1ncccc1COc1cccc(O)c1C=O [Compound 1, 2-hydroxy-6-((2-(1-isopropyl-1H-pyrazol-5-yl)pyridin-3-yl)methoxy)benzaldehyde]
BCS class [2]: BCS II

Structure (SMILES): CC(C)n1nccc1-c1ncccc1COc1cccc(O)c1C=O [Form II of Compound 1, 2-hydroxy-6-((2-(1-isopropyl-1H-pyrazol-5-yl)pyridin-3-yl)methoxy)benzaldehyde]
Compressibility (in words) ([1]; neat API): relatively incompressible solid
Lipophilicity (in words) [2]: lipophilic
Water solubility (in words) [2]: poorly water soluble

Second part, the molecule after the results:

Tablet Hardness [1, 6]: 1.8 kp
Tablet Thickness [1, 6]: 4.50 mm
Tablet Hardness [1, 7]: 1.5 kp
Tablet Thickness [1, 7]: 4.34 mm
Tablet Hardness [1, 8]: 1.0 kp
Tablet Thickness [1, 8]: 4.35 mm
Structure (SMILES): CC(C)n1nccc1-c1ncccc1COc1cccc(O)c1C=O [Lot 1a, 2-hydroxy-6-((2-(1-isopropyl-1H-pyrazol-5-yl)pyridin-3-yl)methoxy)benzaldehyde]

Tablet Hardness [1, 9]: 2.4 kp
Tablet Thickness [1, 9]: 4.55 mm
Tablet Hardness [1, 10]: 1.2 kp
Tablet Thickness [1, 10]: 4.32 mm
Tablet Hardness [1, 11]: 1.5 kp
Tablet Thickness [1, 11]: 4.43 mm
Structure (SMILES): CC(C)n1nccc1-c1ncccc1COc1cccc(O)c1C=O [Lot 1b, 2-hydroxy-6-((2-(1-isopropyl-1H-pyrazol-5-yl)pyridin-3-yl)methoxy)benzaldehyde]
